The values below come from EP4696306A1, “ADENOSINE TRIPHOSPHATE SECRETION INHIBITOR, HEPATIC STELLATE CELL ACTIVATION INHIBITOR, HEPATIC STELLATE CELL DEACTIVATOR, HEPATIC FIBROSIS THERAPEUTIC AGENT, NON-ALCOHOLIC STEATOHEPATITIS THERAPEUTIC AGENT, PSORIASIS THERAPEUTIC AGENT, AND USE OF COMPOUND FOR PRODUCING ADENOSINE TRIPHOSPHATE …” (KURUME UNIVERSITY, priority 2023, dated 2024).

The structures appear in SMILES notation.

For experiment [1], the system named is ATP transport activity in isolated chromaffin granule membranes. The experiment can be described thus: ATP transport (3H-ATP uptake) in chromaffin granule membrane vesicles. Type of experiment: biochemical, bovine. Particulars: for inhibitory activity on ATP transport: concentration not given; for IC50: PEP analogs. As to the method: (§1) Chromaffin granule membranes were prepared from adrenal glands collected from slaughtered cattle according to Reference A (Nathan Nelson et al., 1988, Chromaffin Granule Proton Pump, Methods in Enzymology, 157, 619-633). Chromaffin granule membranes prepared by sucrose density gradient centrifugation were suspended in 2 ml of SME buffer (20 mM MOPS-tris (pH 7.0), 0.3 M sucrose, 5 mM EDTA, 10 µg/ml leupeptin, and 10 µg/ml pepstatin) + 25% glycerol, and the resulting suspension was aliquoted and stored at -80°C. Under these conditions, the ATP transport activity, the V-ATPase activity, and the catecholamine transport activity remain fully active for at least one year.
An ATP transport inhibition experiment for the chromaffin granule membrane was carried out according to Reference B (Yoshinori Moriyama et al., 2022, Is the vesicular nucleotide transporter a molecular target of eicosapentaenoic acid?, Frontiers in Pharmacology, 103389). About 20 µg of chromaffin granule membranes were added to 0.5 ml of measurement buffer (20 mM MOPS-tris (pH 7.0), 0.3 M sucrose, 5 mM potassium chloride, 5 mM magnesium acetate, 5 mM creatine phosphate, 10 units of creatine kinase, and 1 mM ^3[H]-ATP [15 KBq/assay]), followed by incubation at 30°C for 1 hour. Through a Millipore MCE membrane filter with a pore size 0.45 µm, 0.2 ml of the reaction liquid was filtered by suction. Thereafter, the filter was washed with 10 ml of 20 mM MOPS-tris (pH 7.0), 0.3 M sucrose, 5 mM potassium chloride, and 5 mM magnesium acetate, and dissolved in 10 ml of Clear-sol II (manufactured by Nacalai Tesque, Inc.). The radioactivity was then measured using a liquid scintillation counter (N = 3).
The reaction was initiated by adding 50 mM ^3[H]-ATP to a final concentration of 1 mM. The 50 mM ^3[H]-ATP was prepared by mixing an ATP-tris solution (manufactured by Sigma-Aldrich) with [2,8-^3H] adenosine triphosphate tetrasodium salt (26.0 Ci/mmol) (manufactured by New England Nuclear). PEP was used as a test reagent, and pyruvic acid was used as a negative control. Five minutes before the addition of ATP, PEP or pyruvic acid, as a solution in 20 mM MOPS-tris (pH 7.0), 0.3 M sucrose, 5 mM potassium chloride, and 5 mM magnesium acetate, was added to the measurement liquid to a final PEP concentration of 0.02, 0.05, 0.1, 0.2, 0.4, or 1 mM, or to a final pyruvic acid concentration of 0.5 or 1 mM.
(§2) Chromaffin granule membrane vesicles were prepared in the same manner as in Example 5, and uptake of radiolabeled ATP into the vesicles was measured. Transport activity of catecholamine (dopamine) and ATP-dependent proton transport by V-ATPase were also measured in the same manner as in Example 5.

The test system of experiment [2] is catecholamine transport. Put plainly: Catecholamine (3H-dopamine) transport in chromaffin granule membranes. Type of experiment: biochemical, bovine. The settings on record: 1 µM reserpine. The method, then:
as §1
A catecholamine transport inhibition experiment was carried out in the same manner as the ATP transport experiment except that the experiment used a measurement liquid containing 20 mM MOPS-tris (pH 7.0), 0.1 M sucrose, 0.1 M potassium chloride, 5 mM magnesium acetate, and about 5 µg of chromaffin granule membranes. To 0.5 ml of the measurement liquid, 2 mM ATP was added, and the resulting mixture was incubated at 30°C for about 5 minutes, followed by addition of^3 [H]-dopamine thereto to a final concentration of 10 µM. After further incubation at 30°C for 15 minutes, 0.2 ml of the reaction liquid was subjected to suction filtration through a Millipore MCE membrane filter with a pore size of 0.45 µm, and the radioactivity on the filter was measured (N = 3). The substrate, ^3[H]-dopamine, was prepared by mixing 3,4-[RING-2,5,6-^3H]dihydroxyphenylethylamine (dopamine) (30 Ci/mmol) (manufactured by New England Nuclear) with dopamine hydrochloride (manufactured by LKT Laboratories) such that a final concentration of 0.1 mM was achieved during the use.
as §2

Experiment [3] deals with T1, human VNUT (Homo sapiens, UniProt Q9BYT1).
T1 construct: made in house; host or cells: HIGH FIVE insect cells (baculovirus)
T1 sequence (Q9BYT1 1-430 isoform Q9BYT1-2): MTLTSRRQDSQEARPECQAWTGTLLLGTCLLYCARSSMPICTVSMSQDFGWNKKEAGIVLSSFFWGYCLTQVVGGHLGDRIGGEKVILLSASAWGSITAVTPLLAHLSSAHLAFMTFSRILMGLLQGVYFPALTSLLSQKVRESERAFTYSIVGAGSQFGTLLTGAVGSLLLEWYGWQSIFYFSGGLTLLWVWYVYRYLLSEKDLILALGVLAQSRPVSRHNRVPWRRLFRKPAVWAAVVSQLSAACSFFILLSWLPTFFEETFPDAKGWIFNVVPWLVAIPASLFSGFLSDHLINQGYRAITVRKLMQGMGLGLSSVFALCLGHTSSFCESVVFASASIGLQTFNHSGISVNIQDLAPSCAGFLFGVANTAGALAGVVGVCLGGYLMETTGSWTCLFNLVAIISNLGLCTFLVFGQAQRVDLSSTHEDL
The experiment can be described thus: ATP loading into reconstituted liposomes containing human VNUT. Type of experiment: biochemical. Particulars: pyruvic acid at a 50-fold higher concentration (5 mM). The method, then:
Human VNUT was prepared according to Reference C (Keisuke Sawada et al., 2008, Identification of a vesicular nucleotide transporter, Proc Natl Acad Sci USA, vol. 105, no. 15, 5683-5686). Insect cells (HIGH FIVE cells) were infected at MOI = 1 with a baculovirus in which a human VNUT expression system was incorporated. HIGH FIVE cells expressing VNUT (1 × 10^8 cells) were collected with a cell scraper, and suspended at about 8 mg/ml in 20 mM Tris-HCl (pH 8.0), 0.1 M potassium acetate, 10% glycerol, 10 µg/ml pepstatin A, and 10 µg/ml leupeptin, followed by homogenization of the cells using an ultrasonic generator (manufactured by Sonics Materials). […]
VNUT (protein, 20 µg) prepared by the above method was mixed with liposomes (lipid weight, 200 µg), and left to stand at -80°C for 30 minutes. […] A major band was detected at a position of about 68 kDa. The proteins after the electrophoresis with the ePAGEL E-T520 2-10% gradient gel (manufactured by Atto) were electrotransferred to a nitrocellulose sheet, and analyzed by Western blotting using an anti-human SLC17A9 (VNUT) rabbit polyclonal antibody (manufactured by Proteintech).
The ATP transport activity of the VNUT-containing reconstituted liposomes prepared by the above method was measured. […]

Consider `C[C@H](O)C(=O)O` [L-lactic acid], for which the “inhibitory activity on ATP transport” value in experiment [1] is “no inhibitory activity”. Same read-out and setting: in the case of `CC(=O)SCCNC(=O)CCNC(=O)[C@H](O)C(C)(C)COP(=O)(O)OP(=O)(O)OC[C@H]1O[C@@H](n2cnc3c(N)ncnc32)[C@H](O)[C@@H]1OP(=O)(O)O` [acetyl-CoA] it was “no inhibitory activity”. Consider `O=C(O)C(O)COP(=O)(O)O` (stereo not drawn) [3-phosphoglyceric acid], for which 450 µM corresponded to half-maximal inhibition in experiment [1] (IC50).

`O=C[C@H](O)[C@@H](O)[C@H](O)[C@H](O)COP(=O)(O)O` [glucose-6-phosphate]: the “inhibitory activity on ATP transport” value in experiment [1] is “no inhibitory activity”.

Turning to `O=C(O)[C@@H](CO)OP(=O)(O)O` [D-2-phosphoglyceric acid], the IC50 in experiment [1] came to 180 µM. With `COC(=O)[C@H]1[C@H]2C[C@@H]3c4[nH]c5cc(OC)ccc5c4CCN3C[C@H]2C[C@@H](OC(=O)c2cc(OC)c(OC)c(OC)c2)[C@@H]1OC` [reserpine], in experiment [2], the ATP-dependent dopamine transport result is “almost completely blocked”. On to `CC(=O)C(=O)O` [pyruvic acid], for which the “inhibitory activity on ATP transport” value in experiment [1] is “no inhibitory activity”. Also, the “inhibition of ATP transport” value in experiment [1] (concentrations of up to 1 mM) is given as “did not inhibit ATP transport”. Besides, in experiment [3], the “ATP loading into liposomes” value was “did not inhibit ATP loading into liposomes”. `NC(=O)c1ccc[n+]([C@@H]2O[C@H](COP(=O)([O-])OP(=O)(O)OC[C@H]3O[C@@H](n4cnc5c(N)ncnc54)[C@H](O)[C@@H]3O)[C@@H](O)[C@H]2O)c1` [NAD+]: in experiment [1], the “inhibitory activity on ATP transport” value is recorded as “no inhibitory activity”.

`O=C(O)CC(O)C(=O)O` (stereo not drawn) [malic acid]: the “inhibitory activity on ATP transport” value in experiment [1] is given as “no inhibitory activity”. Consider `O=C(O)[C@H](CO)OP(=O)(O)O` [L-2-phosphoglyceric acid], for which the IC50 in experiment [1] was found to be 180 µM. Take `O=C(CO)[C@@H](O)[C@H](O)[C@H](O)COP(=O)(O)O` [fructose-6-phosphate]: the “inhibitory activity on ATP transport” value in experiment [1] is listed as “no inhibitory activity”. Same read-out and setting: in the case of `O=C(O)CC(=O)C(=O)O` [oxaloacetic acid] it was “no inhibitory activity”; in that of `O=C(O)CC(O)(CC(=O)O)C(=O)O` [citric acid], “no inhibitory activity”.
